Test results reported in US8404672B2, “Substituted heterocyclic compounds” (Bristol-Meyers Squibb Company, priority 2009, dated 2013).
Counter-ions that a name gives are not always drawn.

Assays:
[1] = target: T1, S1P1 (membranes from S1P1/CHO cells) (Homo sapiens, UniProt P21453); assay: Method A: Receptor [35S] GTPγS Binding Assay, S1P1; format: biochemical; conditions: for GTPγS S1P3/S1P1 (Method A): ratio of GTPγS S1P3 EC50 to GTPγS S1P1 EC50, Method A; for EC50: Method A, S1P1/CHO membranes
T1 construct: expressed in transfected cells; host or cells: S1P1/CHO cells
Protocol: (§1) Method A: Receptor [35S] GTPγS Binding Assays
(§2) Compounds were loaded in a 384 Falcon v-bottom plate (0.5 μl/well in a 3-fold dilution). Membranes prepared from S1P1/CHO cells or EDG3-Gal5-bla HEK293T cells were added to the compound plate (40 μl/well, final protein 3 μg/well) with MULTIDROP®. [^35S]GTP (1250 Ci/mmol, Perkin Elmer) was diluted in assay buffer: 20 mM HEPES, pH 7.5, 10 mM MgCl2, 150 mM NaCl, 1 mM EGTA, 1 mM DTT, 10 μM GDP, 0.1% fatty acid free BSA, and 10 μg/ml Saponin to 0.4 nM. 40 μl of the [^35S] GTP solution was added to the compound plate with a final concentration of 0.2 nM. The reaction was kept at room temperature for 45 min. At the end of incubation, all the mixtures in the compound plate were transferred to a 384 well FB filter plates via GPCR robot system. The filter plate was washed with water 4 times by using the modified manifold Embla plate washer and dried at 60° C. for 45 min. 30 μA of MicroScint 20 scintillation fluid was added to each well for counting at Packard TOPCOUNT®. EC50 is defined as the agonist concentration that corresponds to 50% of the Ymax (maximal response) obtained for each individual compound tested.
(§3) Compounds of the present invention and Comparative Compound A were tested in the Receptor [35S] GTPγS Binding Assays (Method A) and Receptor [35S] In some instances, the value is an average of multiple experiments where N is the number of experiments conducted that provided satisfactory dose response curves. When more than one batch of an example was tested, the value presented is from a batch which allowed a comparison of GTPγS S1P1 and GTPγS S1P3 in which the most number of experiments were performed. Preferably, the same batch was examined in Method A and Method B. Data was not averaged across different batches of an example compound.

[2] = target: T2, S1P1 (membranes from S1P1 transfected CHO cells) (Homo sapiens, UniProt P21453); assay: Method B: Receptor [35S] GTPγS SPA Binding Assay, S1P1; format: biochemical; conditions: for GTPγS S1P3/S1P1 (Method B): ratio of GTPγS S1P3 EC50 to GTPγS S1P1 EC50, Method B; for EC50: Method B SPA, S1P1 transfected CHO membranes
T2 construct: expressed in transfected cells; host or cells: CHO cells
Protocol: (§4) Method B: Receptor [35S] GTPγS SPA Binding Assays
(§5) Membranes prepared from S1P1 or S1P3 transfected CHO cells ([…]) were incubated in 96-well white plates (CORNING® 3693) with test compounds diluted in DMSO, in 50 μl of reaction mixture containing 7.5 μl WGA-PVT beads (20 mg/ml), and 5 μM GDP, 20 mM HEPES pH 7.4, 100 mM NaCl, 1 mM EDTA, 5 mM MgCl2, 10 μg/ml saponin, 0.1% BSA, and 1 μM leupeptin. The assay was initiated with the addition of […] of 0.2 nM [^35S]-GTPγS (1250 Ci/mmol; NEN) in assay buffer. After 90 min incubation at room temperature, spin the plate at 1000 rpm for 5 min. The bound radionuclides were measured at TOPCOUNT®, expressed as % response relative to S1P (1 μM) activation. Data was analyzed using the four parameter logistic equation in Excel. The four parameters in the equation, Y=A+((B−A)/(1+((EC50/X)^D))), are described as following: A is the Y value (agonist activity) at the bottom plateau; B is the Y value at the top plateau; EC50 is the X value (agonist concentration) when the response is halfway between bottom and top; D is Hill coefficient. Curves were not generated for compounds having Ymax values were below 50%.
as §3

[3] = target: T3, S1P3 (membranes from S1P3 transfected CHO cells) (Homo sapiens, UniProt Q99500); assay: Method B: Receptor [35S] GTPγS SPA Binding Assay, S1P3; format: biochemical
T3 construct: expressed in transfected cells; host or cells: CHO cells
Protocol: as §4, §5, §3

[4] = target: T4, human S1P1 (Homo sapiens, UniProt P21453); assay: S1P1 Binding Assay (33P-S1P radioligand competition, CHO cell membranes); conditions: membranes from CHO cells expressing human S1P1; 0.03 nM 33P-S1P; 60 min room temperature
T4 construct: expressed in transfected cells; host or cells: CHO cells
Protocol: Membranes were prepared from CHO cells expressing human S1P1. Cells were dissociated in buffer containing 20 mM HEPES, pH 7.5, 50 mM NaCl, 2 mM EDTA and Protease Inhibitor cocktail (Roche), and disrupted on ice using the Polytron homogenizer. The homogenate was centrifuged at 20,000 rpm (48,000 g) and the supernatant was discarded. The membrane pellets were resuspended in buffer containing 50 mM HEPES, pH 7.5, 100 mM NaCl, 1 mM MgCl2, 2 mM EDTA and stored in aliquots at −80° C. after protein concentration determination.
Membranes ([…]) and 0.03 nM final concentration of ^33P—S1P ligand (1 mCi/ml, American Radiolabeled Chemicals) were added to the compound plates. Binding was performed for 60 min at room temperature, terminated by collecting the membranes onto GF/B filter plates, and radioactivity was measured by TOPCOUNT®. The competition data of the test compounds over a range of concentrations was plotted as percentage inhibition of radioligand specific binding. The IC50 is defined as the concentration of competing ligand needed to reduce specific binding by 50%.
Compounds of the present invention and Comparative Compound A were tested in the S1P1 binding assay described hereinabove and the results rounded to two digits, shown in Table A were obtained. In some instances, the value is an average of multiple experiments where N is the number of experiments conducted that provided satisfactory dose response curves. When more than one batch of an example was tested, the value presented is from the batch which allowed a comparison of GTPγS S1P1 and GTPγS S1P3 in Method A (Data shown in Table B). Data was not averaged across different batches of an example compound.

[5] = target: T5, S1P3 (membranes from EDG3-Gal5-bla HEK293T cells) (Homo sapiens, UniProt Q99500); assay: Method A: Receptor [35S] GTPγS Binding Assay, S1P3; format: biochemical
T5 construct: expressed in transfected cells; host or cells: EDG3-Gal5-bla HEK293T cells
Protocol: as §1, §2, §3

T1 sequence (P21453 whole entry): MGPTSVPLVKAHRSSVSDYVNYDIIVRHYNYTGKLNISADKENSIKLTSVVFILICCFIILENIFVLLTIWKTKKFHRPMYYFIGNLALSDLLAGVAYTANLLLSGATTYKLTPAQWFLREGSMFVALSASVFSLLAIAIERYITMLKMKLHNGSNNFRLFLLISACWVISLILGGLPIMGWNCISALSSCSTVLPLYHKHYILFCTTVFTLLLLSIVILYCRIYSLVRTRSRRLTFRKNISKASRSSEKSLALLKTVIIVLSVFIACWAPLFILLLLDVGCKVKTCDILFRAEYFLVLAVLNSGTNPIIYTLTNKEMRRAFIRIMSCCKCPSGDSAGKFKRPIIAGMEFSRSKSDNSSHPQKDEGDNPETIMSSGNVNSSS
T4 sequence (P21453 whole entry): as above
T2 sequence (P21453 whole entry): as above
T5 sequence (Q99500 whole entry): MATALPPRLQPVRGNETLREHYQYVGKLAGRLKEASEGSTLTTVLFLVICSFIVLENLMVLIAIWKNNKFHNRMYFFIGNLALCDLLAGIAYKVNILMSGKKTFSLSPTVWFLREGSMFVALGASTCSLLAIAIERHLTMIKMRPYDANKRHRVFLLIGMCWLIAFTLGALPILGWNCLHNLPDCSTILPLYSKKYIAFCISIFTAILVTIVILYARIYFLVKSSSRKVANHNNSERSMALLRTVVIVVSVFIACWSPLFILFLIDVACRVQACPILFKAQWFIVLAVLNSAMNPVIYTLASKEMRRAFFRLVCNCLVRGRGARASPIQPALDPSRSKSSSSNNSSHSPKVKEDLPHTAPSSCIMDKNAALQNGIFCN
T3 sequence (Q99500 whole entry): as above

SMILES	GTPγS S1P3/S1P1 (Method A) [1]	GTPγS S1P3/S1P1 (Method B) [2]	EC50 [3] [nM]	IC50 [4] [nM]	EC50 [1] [nM]	EC50 [2] [nM]	EC50 [5] [nM]
O=C(O)C1CN(Cc2ccc(-c3noc(-c4cc(-c5ccccc5)c(C(F)(F)F)s4)n3)cc2)C1 [Comp. A, 1-(4-(5-(4-Phenyl-5-(trifluoromethyl)thiophen-2-yl)-1,2,4-oxadiazol-3-yl)benzyl)azetidine-3-carboxylic acid, reference compound]	1.2	78					
O=C(O)C1CN(Cc2ccc(-c3noc(-c4noc(-c5ccccn5)c4C(F)(F)F)n3)cc2)C1 [Example 2, 1-(4-(5-(5-(Pyridin-2-yl)-4-(trifluoromethyl)isoxazol-3-yl)-1,2,4-oxadiazol-3-yl)benzyl)azetidine-3-carboxylic acid]		13,000	4400	0.39	4.5	0.34	
O=C(O)C1CN(Cc2ccc(-c3noc(-c4cc(-c5ccccn5)no4)n3)cc2)C1 [Example 8]	5.1			6.5	450	68	2300
CCc1c(-c2nc(-c3ccc(CN4CC(C(=O)O)C4)cc3)no2)noc1-c1ccccn1 [Example 5, 1-(4-(5-(4-Ethyl-5-(pyridin-2-yl)isoxazol-3-yl)-1,2,4-oxadiazol-3-yl)benzyl)-azetidine-3-carboxylic acid, 2,2,2-trifluoroacetic acid salt]	513			0.051	3.7	0.61	1900
COC(=O)c1c(-c2ccccn2)noc1-c1nc(-c2ccc(CN3CC(C(=O)O)C3)cc2)no1 [Example 7, 1-(4-(5-(4-(Methoxycarbonyl)-3-(pyridin-2-yl)isoxazol-5-yl)-1,2,4-oxadiazol-3-yl)benzyl)azetidine-3-carboxylic acid]	5,800			0.53	3.3		19000
CCCc1c(-c2ccccn2)noc1-c1nc(-c2ccc(CN3CC(C(=O)O)C3)cc2)no1 [Example 6, 1-(4-(5-(4-Propyl-3-(pyridin-2-yl)isoxazol-5-yl)-1,2,4-oxadiazol-3-yl)benzyl)-azetidine-3-carboxylic acid, 2,2,2-trifluoroacetic acid salt]		5,200	430	0.019		0.082	
CC(C)c1c(-c2nc(-c3ccc(CN4CC(C(=O)O)C4)cc3)no2)noc1-c1ccccn1 [Example 4, 1-(4-(5-(4-Isopropyl-5-(pyridin-2-yl)isoxazol-3-yl)-1,2,4-oxadiazol-3-yl)benzyl)azetidine-3-carboxylate, 2,2,2-trifluoroacetic acid salt]	179			0.18	39	1	7000
CCCc1c(-c2nc(-c3ccc(CN4CC(C(=O)O)C4)cc3)no2)noc1-c1ccccn1 [Example 3, 1-(4-(5-(4-Propyl-5-(pyridin-2-yl)isoxazol-3-yl)-1,2,4-oxadiazol-3-yl)benzyl)azetidine-3-carboxylic acid, 2,2,2-trifluoroacetic acid salt]	2,600	430	280	0.021	0.82	0.65	2100
